Reference: article PMC10352132 (Nature Structural & Molecular Biology, 2023)
Values joined by “and” are separate entries in the source; they are usually repeats but may differ in a detail not shown here. Identical values can stand only once. Like-named read-outs stand apart in the source and are kept apart here.

Tests used:
rGAT1WT [1] = target: T1, rGAT1WT (Rattus norvegicus, UniProt P23978); experiment: Inhibition of 3H-GABA uptake through rGAT1WT; type: cell-based; settings: rGAT1WT; for 3[H]GABA uptake (% of uninhibited sample): replicates T1-T6
Description: (§1) […]. After 15 min, the uptake was arrested with 100 µl of ice-cold assay buffer and washed two times with the same buffer. The cells were solubilized for 1 h in 100 µl of 20 mM DDM and 2 mM CHS, and 50 µl of scintillant was added to the solubilized material. Counts were measured using a MicroBeta scintillation counter. Uninfected cells were used as a control. The background-subtracted dose–response curves were plotted as log [inhibitor] versus response using GraphPad Prism (version 5.0.1) and IC50 values were determined. The Ki values were calculated using Cheng-Prusoff’s equation. […] The data were analyzed using GraphPad Prism (version 5.0.1).

rGAT1EM [2] = target: T2, rGAT1EM (Rattus norvegicus, UniProt P23978, D482E/E486D/F312Y/N483D/Q485R/R491P/S490F/V488I/Y481S); experiment: MS binding assay (LC-ESI-MS/MS saturation) with rGAT1EM expressing membranes; settings: for total binding / non-specific binding: rGAT1EM; for total binding: triplicate; for non-specific binding: in the presence of 100 mM GABA
T2 sequence (P23978 with tags, fused parts or gaps F312Y/Y481S/D482E/N483D/Q485R/E486D/V488I/S490F/R491P): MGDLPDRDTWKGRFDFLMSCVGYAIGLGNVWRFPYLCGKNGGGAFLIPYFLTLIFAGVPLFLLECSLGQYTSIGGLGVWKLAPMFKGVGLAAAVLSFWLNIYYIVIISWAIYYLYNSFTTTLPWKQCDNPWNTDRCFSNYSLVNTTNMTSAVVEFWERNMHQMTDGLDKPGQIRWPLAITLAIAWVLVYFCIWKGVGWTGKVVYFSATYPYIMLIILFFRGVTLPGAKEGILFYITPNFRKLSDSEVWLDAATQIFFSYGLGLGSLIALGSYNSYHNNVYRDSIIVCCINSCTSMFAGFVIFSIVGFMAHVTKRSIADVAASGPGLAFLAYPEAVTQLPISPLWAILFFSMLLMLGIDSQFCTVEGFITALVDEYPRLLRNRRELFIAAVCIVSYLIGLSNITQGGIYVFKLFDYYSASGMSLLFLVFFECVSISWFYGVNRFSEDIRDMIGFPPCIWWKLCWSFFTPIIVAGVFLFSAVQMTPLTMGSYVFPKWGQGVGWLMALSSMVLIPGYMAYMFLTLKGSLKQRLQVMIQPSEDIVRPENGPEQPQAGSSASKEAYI
Description: (§2) The cell suspension was sonicated, the lysate was centrifuged at 21,000×g to separate the cell debris and 1 ml of the supernatant was aliquoted into each of forty 1.5 ml microfuge tubes. The membrane suspension was spun at 49,000×g for 90 min in a TLA100.1 rotor (Beckman) followed by flash-freezing and storage at −80 °C.
(§3) Binding experiments were performed as described unless stated otherwise. Aliquots of rGAT1 or hGAT1[53] membrane preparations were defrosted, diluted in 20 ml 50 mM Tris-citrate buffer containing 1 M NaCl, pH 7.1 (assay buffer) and centrifuged (50,000×g, 4 °C, 20 min). After resuspension of the pellet in assay buffer, saturation experiments with NO711 were performed in triplicate samples (about 10 µg protein) in a total assay volume of 250 µl. […] Incubation was performed for 40 min at 37 °C; subsequently, 200 µl aliquots of the binding samples were transferred onto 96-well filter plates and filtrated under vacuum, followed by rapid washing of the filters with ice-cold 0.9% NaCl (3 × 150 µl). The filter plates were then dried (60 min, 50 °C) and eluted with 3 × 100 µl methanol (containing 1.43 nM D10-NO711). […] Analysis of the binding data was performed with GraphPad Prism (version 6.0.7). The results are based on at least three independent saturation experiments for each GAT1 species.

rGAT1EM [3] = target: T2, rGAT1EM; experiment: Inhibition of 3H-GABA uptake through rGAT1EM; type: cell-based; settings: rGAT1EM; for 3[H]GABA uptake (% of uninhibited sample): replicates T1-T6
Description: as §1

rGAT1WT [4] = target: T1, rGAT1WT; experiment: MS binding assay (LC-ESI-MS/MS saturation) with rGAT1WT expressing membranes; settings: for total binding / non-specific binding: rGAT1WT; for total binding: triplicate; for non-specific binding: in the presence of 100 mM GABA
Description: as §2, §3

[5] = calculated using Cheng-Prusoff's equation

Question: Which results are given for `O=C(O)C1=CCCN(CCON=C(c2ccccc2)c2ccccc2)C1` [NO711]?
Answer: IC50 (rGAT1WT [1]): 563 nM; Ki (rGAT1WT [1]; [5]): 325 ± 35 nM; 3[H]GABA uptake (% of uninhibited sample) (rGAT1WT [1]; inhibitor 1 nM, 0.001 µM): 91.7343% and 91.298% and 89.6982% and 104.496% and 107.442% and 95.8793%; 3[H]GABA uptake (% of uninhibited sample) (rGAT1WT [1]; inhibitor 10 nM, 0.01 µM): 89.0619% and 103.351% and 105.969% and 101.46% and 106.551% and 93.6068%; 3[H]GABA uptake (% of uninhibited sample) (rGAT1WT [1]; inhibitor 30 nM, 0.03 µM): 83.2626% and 81.7356% and 90.8981% and 90.6072% and 95.952% and 94.6794%; 3[H]GABA uptake (% of uninhibited sample) (rGAT1WT [1]; inhibitor 100 nM, 0.1 µM): 91.189% and 83.9535% and 82.5718% and 49.5576% and 81.2629% and 73.9547%; 3[H]GABA uptake (% of uninhibited sample) (rGAT1WT [1]; inhibitor 500 nM, 0.5 µM): 55.0115% and 49.6303% and 48.5396% and 53.3026% and 54.4298% and 46.4671%; 3[H]GABA uptake (% of uninhibited sample) (rGAT1WT [1]; inhibitor 1000 nM, 1 µM): 39.1225% and 40.286% and 41.9222% and 36.8319% and 37.6318% and 37.6682%; 3[H]GABA uptake (% of uninhibited sample) (rGAT1WT [1]; inhibitor 3000 nM, 3 µM): 18.3614% and 14.2165% and 17.0888% and 16.5071%; BMAX (MS binding assay) (rGAT1EM [2]; rGAT1EM membranes): 212.4 ± 30.3 pmol/mg protein; Kd (rGAT1EM [2]; rGAT1EM membranes): 80 nM and 80.7 nM; total binding (rGAT1EM [2]; c NO711 2.5 nM): 0.0853 nM and 0.0717 nM and 0.0765 nM; total binding (rGAT1EM [2]; c NO711 5 nM): 0.175 nM and 0.157 nM and 0.182 nM; total binding (rGAT1EM [2]; c NO711 10 nM): 0.266 nM and 0.298 nM and 0.282 nM; total binding (rGAT1EM [2]; c NO711 20 nM): 0.414 nM and 0.405 nM and 0.393 nM; non-specific binding (rGAT1EM [2]; c NO711 40 nM): 0.0146 nM and 0.0116 nM and 0.0148 nM; total binding (rGAT1EM [2]; c NO711 40 nM): 0.654 nM and 0.656 nM and 0.82 nM; non-specific binding (rGAT1EM [2]; c NO711 80 nM): 0.0357 nM and 0.0322 nM and 0.0377 nM; total binding (rGAT1EM [2]; c NO711 80 nM): 0.825 nM and 0.877 nM and 0.867 nM; non-specific binding (rGAT1EM [2]; c NO711 160 nM): 0.0681 nM and 0.0747 nM and 0.0767 nM; total binding (rGAT1EM [2]; c NO711 160 nM): 1.22 nM and 1.29 nM and 1.33 nM; non-specific binding (rGAT1EM [2]; c NO711 320 nM): 0.131 nM and 0.148 nM and 0.145 nM; total binding (rGAT1EM [2]; c NO711 320 nM): 1.55 nM and 1.39 nM and 1.57 nM; non-specific binding (rGAT1EM [2]; c NO711 640 nM): 0.281 nM and 0.277 nM and 0.282 nM; total binding (rGAT1EM [2]; c NO711 640 nM): 1.85 nM and 2.19 nM and 2.02 nM; non-specific binding (rGAT1EM [2]; c NO711 1280 nM): 0.608 nM and 0.571 nM and 0.589 nM; total binding (rGAT1EM [2]; c NO711 1280 nM): 2.47 nM and 2.46 nM; Ki (rGAT1EM [3]; [5]): 53 ± 4 nM; 3[H]GABA uptake (% of uninhibited sample) (rGAT1EM [3]; inhibitor 1 nM, 0.001 µM): 100.216% and 103.239% and 95.1781% and 97.6251% and 105.398% and 98.3447%; 3[H]GABA uptake (% of uninhibited sample) (rGAT1EM [3]; inhibitor 10 nM, 0.01 µM): 90.824% and 80.7485% and 91.6877% and 97.5891% and 93.055% and 87.4415%; 3[H]GABA uptake (% of uninhibited sample) (rGAT1EM [3]; inhibitor 30 nM, 0.03 µM): 85.8582% and 72.9759% and 75.9266% and 79.8129% and 79.2371% and 88.8089%; 3[H]GABA uptake (% of uninhibited sample) (rGAT1EM [3]; inhibitor 100 nM, 0.1 µM): 55.6315% and 53.1846% and 49.5862% and 54.3361% and 66.2109% and 52.321%; 3[H]GABA uptake (% of uninhibited sample) (rGAT1EM [3]; inhibitor 500 nM, 0.5 µM): 29.8309% and 34.7967% and 26.0165% and 31.1983% and 34.4368% and 36.2361%; 3[H]GABA uptake (% of uninhibited sample) (rGAT1EM [3]; inhibitor 1000 nM, 1 µM): 17.0205% and 18.9637% and 19.4674% and 16.1569% and 19.1796% and 13.2062%; 3[H]GABA uptake (% of uninhibited sample) (rGAT1EM [3]; inhibitor 3000 nM, 3 µM): 9.608% and 6.153% and 8.168% and 9.104% (2×) and 11.1191%; 3[H]GABA uptake (% of uninhibited sample) (rGAT1EM [3]; inhibitor 10000 nM, 10 µM): 5.11% and 2.879% and 4.39% and 4.246% and 2.375% and 5.038%; 3[H]GABA uptake (% of uninhibited sample) (rGAT1EM [3]; inhibitor 50000 nM, 50 µM): 1.763% and 1.439% and 0.8276% and 1.799% and 0.8996% and 1.3674%; 3[H]GABA uptake (% of uninhibited sample) (rGAT1EM [3]; inhibitor 100000 nM, 100 µM): 0.5757% and 0.6477% and 0.7197% and 0.5038% (2×) and 0.3598%; IC50 (rGAT1EM [3]; read-out: IC50 of inhibition of 3H-GABA uptake): 155 nM; IC50 (rGAT1EM [3]; read-out: inhibition potencies (K0.5)): 155 nM; BMAX (MS binding assay) (rGAT1WT [4]; rGAT1WT membranes): 166.4 ± 44.6 pmol/mg protein; Kd (rGAT1WT [4]; rGAT1WT membranes): 50 nM and 50.6 nM; total binding (rGAT1WT [4]; c NO711 2.5 nM): 0.0851 nM and 0.0839 nM and 0.0992 nM; total binding (rGAT1WT [4]; c NO711 5 nM): 0.236 nM and 0.225 nM and 0.219 nM; total binding (rGAT1WT [4]; c NO711 10 nM): 0.387 nM and 0.361 nM; total binding (rGAT1WT [4]; c NO711 20 nM): 0.566 nM and 0.612 nM and 0.546 nM; non-specific binding (rGAT1WT [4]; c NO711 40 nM): 0.0154 nM and 0.0179 nM and 0.0127 nM; total binding (rGAT1WT [4]; c NO711 40 nM): 0.967 nM and 0.954 nM and 0.928 nM; non-specific binding (rGAT1WT [4]; c NO711 80 nM): 0.0317 nM and 0.0305 nM and 0.029 nM; total binding (rGAT1WT [4]; c NO711 80 nM): 1.15 nM and 1.08 nM and 1.2 nM; non-specific binding (rGAT1WT [4]; c NO711 160 nM): 0.0708 nM and 0.0715 nM and 0.07 nM; total binding (rGAT1WT [4]; c NO711 160 nM): 1.46 nM and 1.6 nM; non-specific binding (rGAT1WT [4]; c NO711 320 nM): 0.131 nM and 0.157 nM and 0.18 nM; total binding (rGAT1WT [4]; c NO711 320 nM): 1.95 nM and 1.86 nM and 1.76 nM; non-specific binding (rGAT1WT [4]; c NO711 640 nM): 0.27 nM and 0.291 nM and 0.276 nM; total binding (rGAT1WT [4]; c NO711 640 nM): 2.12 nM and 2.1 nM and 2.38 nM; non-specific binding (rGAT1WT [4]; c NO711 1280 nM): 0.65 nM and 0.595 nM and 0.624 nM; total binding (rGAT1WT [4]; c NO711 1280 nM): 2.77 nM and 2.69 nM and 2.73 nM
